According to patent US12479841B2, “Anthelmintic compounds comprising azaindoles structure” (Intervet Inc., priority 2019, dated 2025):

Key:
[1] = test system: Oesophagostomum dentatum (nodular worm of swine), larval stage 3; experiment: In vitro assay: Oesophagostomum dentatum L3 larvae, minimum effective concentration; settings: in Sus scrofa, read-out: MEC (minimum effective concentration) against Oesophagostomum dentatum L3, L3 larvae, 20 per well, microscopic examination, concentration at which at least one larva shows mortality, change in motility or development
From the text: (§1) In Vitro Assay: Ascaridia galli and Oesophagostomum dentatum
(§2) Ascaridia galli (intestinal roundworm of chicken), larval stage 3 (“L3”); and Oesophagostomum dentatum (nodular worm of swine), larval stages 3 and 4 (respectively “L3” and “L4”) where suspended in a nutrient medium and distributed to 96 well plates with 20 larvae per well. The wells were spiked with DMSO solutions of the compounds with declining concentration.

[2] = test system: Oesophagostomum dentatum (nodular worm of swine), larval stage 4; experiment: In vitro assay: Oesophagostomum dentatum L4 larvae, minimum effective concentration; settings: in Sus scrofa, read-out: MEC (minimum effective concentration) against Oesophagostomum dentatum L4, L4 larvae, 20 per well, microscopic examination, concentration at which at least one larva shows mortality, change in motility or development
From the text: as §1, §2

[3] = target: human Maxi K channel (BK channel), KCNMA1 (KCa1.1) and beta1 (KCNMB1) subunits (Homo sapiens, UniProt Q12791)
Chain of human Maxi K channel (BK channel), KCNMA1 (KCa1.1) and beta1 (KCNMB1) subunits (Q12791 1-1178 isoform Q12791-5): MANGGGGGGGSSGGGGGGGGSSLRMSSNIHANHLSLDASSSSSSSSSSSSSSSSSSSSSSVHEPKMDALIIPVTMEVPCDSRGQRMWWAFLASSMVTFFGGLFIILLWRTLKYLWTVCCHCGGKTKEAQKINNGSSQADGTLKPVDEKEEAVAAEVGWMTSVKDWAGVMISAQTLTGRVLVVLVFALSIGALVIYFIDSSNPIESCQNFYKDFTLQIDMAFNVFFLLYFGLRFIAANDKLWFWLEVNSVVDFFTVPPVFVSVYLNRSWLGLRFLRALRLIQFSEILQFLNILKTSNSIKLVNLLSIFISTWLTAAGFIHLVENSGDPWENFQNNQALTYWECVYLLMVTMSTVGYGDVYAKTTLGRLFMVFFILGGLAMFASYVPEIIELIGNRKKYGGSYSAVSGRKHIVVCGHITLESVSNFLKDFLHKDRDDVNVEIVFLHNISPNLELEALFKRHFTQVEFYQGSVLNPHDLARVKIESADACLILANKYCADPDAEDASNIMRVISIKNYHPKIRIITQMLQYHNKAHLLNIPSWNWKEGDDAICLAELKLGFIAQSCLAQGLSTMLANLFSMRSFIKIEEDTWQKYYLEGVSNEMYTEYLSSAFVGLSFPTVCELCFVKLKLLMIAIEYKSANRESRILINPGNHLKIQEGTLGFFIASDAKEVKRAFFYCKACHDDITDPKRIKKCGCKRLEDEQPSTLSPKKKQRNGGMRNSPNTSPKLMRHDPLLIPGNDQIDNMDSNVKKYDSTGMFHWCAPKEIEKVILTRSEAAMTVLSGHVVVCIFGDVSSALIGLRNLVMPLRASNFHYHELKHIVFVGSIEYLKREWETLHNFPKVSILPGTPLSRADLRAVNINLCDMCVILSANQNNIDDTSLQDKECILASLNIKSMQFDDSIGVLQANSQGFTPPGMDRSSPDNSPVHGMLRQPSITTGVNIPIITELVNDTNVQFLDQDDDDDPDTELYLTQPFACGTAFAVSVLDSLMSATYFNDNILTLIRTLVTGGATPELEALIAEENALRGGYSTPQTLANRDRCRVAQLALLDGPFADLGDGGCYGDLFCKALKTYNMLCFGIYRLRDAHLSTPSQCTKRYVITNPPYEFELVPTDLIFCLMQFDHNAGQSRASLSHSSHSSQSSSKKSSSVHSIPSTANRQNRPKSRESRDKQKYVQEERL
Chain of human Maxi K channel (BK channel), KCNMA1 (KCa1.1) and beta1 (KCNMB1) subunits (Q16558 whole entry partner): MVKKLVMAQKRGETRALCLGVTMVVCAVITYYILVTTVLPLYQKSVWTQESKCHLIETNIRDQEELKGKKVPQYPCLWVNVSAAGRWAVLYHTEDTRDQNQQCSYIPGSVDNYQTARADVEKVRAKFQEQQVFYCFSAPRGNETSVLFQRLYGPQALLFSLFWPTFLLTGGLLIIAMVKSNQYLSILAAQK
Method: In Vitro Assay: Agonistic Activity at the Human Maxi K Channel (BK Channel)
A CHO K1 cell line was stably transfected with the KCNMA1 (KCa1.1, U11058) and beta1 (KCNMB1) subunits of the human Maxi K channel (Ponte et al, Molecular Pharmacology 2012, 81(4), 567-577).
Cells were seeded in microtiter plates (black 384-well MTP, clear bottom) in a concentration of 10,000 cells/well in 25 μl medium and cultured for 20 to 24 hours at 37° C. and 5% CO2. The cell medium was removed, and the cells washed with Tyrode's solution. 25 μl of FMP-dye Blue-Tyrode's was added to each well and incubated at room temperature for 30 min.
(§3) For the membrane potential measurements, the prepared cell plate and substance plate were placed in the FLIPR Tetra (Molecular Devices). The baseline measurement of the fluorescence was stared for 20 sec (Exc. 510-545 nm, Emm. 565-625 nm). The cells were depolarized by addition of 25 μl of the diluted test compounds (final assay concentration of the KCl-Tyrode: 70 mM KCl, 2 mM CaCl2, 1 mM MgCl2, 0.8 mM NaH2PO4, 5 mM Glucose, 28 mM Hepes, pH 7.4, including the voltage sensitive dye). The complete measurement takes 150 s.
(§4) EC50 values were determined in triplicate utilizing compound dilution series. The data were determined at least in two independent tests. The data were proceeded by using the ActivityBase XE Runner software (IDBS) for curve fitting and calculation of the half-maximal effective concentration.

[4] = target: Caenorhabditis elegans slo-1a (Caenorhabditis elegans, UniProt Q95V25)
Chain of Caenorhabditis elegans slo-1a (Q95V25 whole entry): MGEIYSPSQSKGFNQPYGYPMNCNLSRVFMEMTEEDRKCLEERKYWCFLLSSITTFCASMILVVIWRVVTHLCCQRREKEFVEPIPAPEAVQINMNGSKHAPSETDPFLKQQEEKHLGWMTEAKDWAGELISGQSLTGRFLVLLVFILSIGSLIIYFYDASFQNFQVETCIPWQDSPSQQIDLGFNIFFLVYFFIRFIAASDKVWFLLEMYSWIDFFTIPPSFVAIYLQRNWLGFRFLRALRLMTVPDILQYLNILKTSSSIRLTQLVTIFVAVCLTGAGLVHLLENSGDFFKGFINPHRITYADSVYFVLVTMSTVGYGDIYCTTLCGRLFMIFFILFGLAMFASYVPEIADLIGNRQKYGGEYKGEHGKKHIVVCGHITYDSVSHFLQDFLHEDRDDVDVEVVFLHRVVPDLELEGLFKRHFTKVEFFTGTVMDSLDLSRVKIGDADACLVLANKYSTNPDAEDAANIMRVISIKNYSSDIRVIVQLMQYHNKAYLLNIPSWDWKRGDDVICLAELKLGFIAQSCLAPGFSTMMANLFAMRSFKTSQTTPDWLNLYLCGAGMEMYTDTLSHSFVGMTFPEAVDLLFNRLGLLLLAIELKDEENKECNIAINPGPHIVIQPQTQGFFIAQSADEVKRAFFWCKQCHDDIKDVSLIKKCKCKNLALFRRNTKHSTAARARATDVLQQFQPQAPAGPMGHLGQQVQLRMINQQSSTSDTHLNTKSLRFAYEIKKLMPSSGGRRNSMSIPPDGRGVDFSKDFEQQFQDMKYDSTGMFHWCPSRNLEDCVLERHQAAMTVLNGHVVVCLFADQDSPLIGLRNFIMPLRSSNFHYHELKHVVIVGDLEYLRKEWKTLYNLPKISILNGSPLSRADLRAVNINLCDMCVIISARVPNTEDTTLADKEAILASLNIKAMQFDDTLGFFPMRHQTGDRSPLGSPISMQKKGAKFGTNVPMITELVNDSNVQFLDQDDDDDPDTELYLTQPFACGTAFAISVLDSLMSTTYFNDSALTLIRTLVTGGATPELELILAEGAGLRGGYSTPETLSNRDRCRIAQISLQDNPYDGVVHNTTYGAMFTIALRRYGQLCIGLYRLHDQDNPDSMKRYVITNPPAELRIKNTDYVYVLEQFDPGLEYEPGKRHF
Method: In Vitro Assay: Agonistic Activity at C. elegans Slo-1a
A CHO K1 cell line stably transfected with the Caenorhabditis elegans slo-1a (accession no Y51A2D.19a) was established. Cells were seeded in microtiter plates (black 384-well MTP, clear bottom) in a concentration of 10,000 cells/well in 25 μl medium and cultured for 20 to 24 hours at 37° C. and 5% CO2. The cell medium was removed, and the cells washed with Tyrode's solution. 25 μl of FMP-dye Blue-Tyrode's was added to each well and incubated at room temperature for 30 min.
as §3, §4

[5] = test system: D. immitis microfilaria; experiment: In vitro assay: Dirofilaria immitis L1 (microfilaria) motility; format: cell-based; settings: 72 h, read-out: EC50 value, Dirofilaria immitis L1, approximately 500 microfilaria, 3 days incubation, reduction in motility vs DMSO, duplicates
[6] = test system: A. viteae microfilaria; experiment: In vitro assay: Acanthocheilonema viteae L1 (microfilaria) motility; settings: 72 h, read-out: EC50 value, Acanthocheilonema viteae L1, approximately 500 microfilaria, 3 days incubation, reduction in motility vs DMSO, duplicates
Method: In Vitro Assay: Acanthocheilonema viteae L1
Approximately 500 A. viteae microfilaria were added to a microtiter plate containing a nutrient medium and the test compound in DMSO at varying concentrations. After incubation for 3 days, activity was evaluated as reduction in motility as compared to DMSO as negative control. Compounds were tested in duplicates. Based on the concentration response curves EC50 values were calculated.

[7] = test system: larvae L4 of D. immitis; experiment: In vitro assay: Dirofilaria immitis L4 motility; format: cell-based; settings: 72 h, read-out: EC50 value, Dirofilaria immitis L4, 10 L4 larvae, 3 days incubation, reduction in motility vs DMSO, duplicates

Compound | EC50 [3] | EC50 [4] | further results
O=C(Nc1cccc2ccccc12)c1cnc2c(ccn2-c2cccc(Cl)c2Cl)c1N1CCOCC1 [Compound 23] | > 30 µM | – | minimal effective concentration [1]: ≤ 50 µM; minimal effective concentration [2]: ≤ 50 µM
O=C(NC1CCc2ccccc21)c1cnc2c(ccn2-c2cccc(Cl)c2Cl)c1N1CCOCC1 (stereo not drawn) [Compound 4] | > 30 µM | < 1 µM | –
CN(C)c1c(C(=O)NCc2ccccc2)cnc2c1ccn2-c1cccc(Cl)c1Cl [Compound 10] | > 30 µM | < 1 µM | –
CN(C)c1c(C(=O)N[C@H]2CCOc3ccccc32)cnc2c1ccn2-c1cccc(C(F)(F)F)c1 [Compound 28] | > 30 µM | < 1 µM | –
CCOc1c(C(=O)N[C@H]2CCOc3ccccc32)cnc2c1ccn2-c1cc(Cl)cc(Cl)c1 [Compound 43] | > 30 µM | – | EC50 [5]: < 10 µM; minimal effective concentration [2]: ≤ 50 µM
CN(C)c1c(C(=O)N[C@@H]2CCOc3ccccc32)cnc2c1ccn2-c1cccc(Cl)c1Cl [Compound 18] | > 30 µM | < 10 µM | EC50 [6]: < 10 µM; minimal effective concentration [2]: ≤ 50 µM
CCOc1c(C(=O)N[C@H]2CCCc3ccccc32)cnc2c1ccn2-c1cc(Cl)cc(Cl)c1 [Compound 45] | > 30 µM | – | –
CN(C)c1c(C(=O)NCc2ccccc2)cnc2c1ccn2-c1cc(Cl)cc(Cl)c1 [Compound 9] | > 30 µM | – | –
O=C(NCc1ccccc1)c1cnc2c(ccn2-c2cc(Cl)cc(Cl)c2)c1N1CCOCC1 [Compound 11] | > 30 µM | – | minimal effective concentration [1]: ≤ 50 µM
CC1(C)CC(NC(=O)c2cnc3c(ccn3-c3cccc(Cl)c3Cl)c2N2CCOCC2)c2ccccc2O1 (stereo not drawn) [Compound 40] | > 30 µM | < 10 µM | EC50 [6]: < 10 µM; minimal effective concentration [1]: ≤ 50 µM
COc1c(C(=O)N[C@H]2CCc3ccccc32)cnc2c1ccn2-c1cc(Cl)cc(Cl)c1 [Compound 49] | > 30 µM | – | –
CN(C)c1c(C(=O)N[C@H]2CCOc3ccccc32)cnc2c1ccn2-c1cccc(F)c1F [Compound 25] | > 30 µM | < 1 µM | –
CN(C)c1c(C(=O)NC2CCOc3ccccc32)cnc2c1ccn2-c1cccc(Cl)c1Cl (stereo not drawn) [Compound 6] | > 30 µM | < 1 µM | –
CN(C)c1c(C(=O)NC2CC(C)(C)Oc3ccccc32)cnc2c1ccn2-c1cccc(Cl)c1Cl (stereo not drawn) [Compound 19] | > 30 µM | < 10 µM | –
CN(C)c1c(C(=O)N[C@H]2CCCc3ccccc32)cnc2c1ccn2-c1cc(Cl)cc(Cl)c1 [Compound 34] | > 30 µM | < 10 µM | –
CN(C)c1c(C(=O)N[C@H]2CCCc3ccccc32)cnc2c1ccn2-c1cccc(Cl)c1Cl [Compound 14, (S)-1-(2,3-dichlorophenyl)-4-(dimethylamino)-N-(1,2,3,4-tetrahydronaphthalen-1-yl)-1H-pyrrolo[2,3-b]pyridine-5-carboxamide] | 10 to 30 µM | < 1 µM | –
O=C(NC1CCOc2ccccc21)c1cnc2c(ccn2-c2cccc(Cl)c2Cl)c1N1CCOCC1 (stereo not drawn) [Compound 8] | > 30 µM | < 1 µM | EC50 [7]: < 1 µM
O=C(N[C@H]1CCCc2ccccc21)c1cnc2c(ccn2-c2cccc(Cl)c2Cl)c1N1CCOCC1 [Compound 17] | 10 to 30 µM | < 1 µM | –
CN(C)c1c(C(=O)NC2CCc3ccccc32)cnc2c1ccn2-c1cc(Cl)cc(Cl)c1 (stereo not drawn) [Compound 1, 1-(3,5-dichlorophenyl)-N-(2,3-dihydro-1H-inden-1-yl)-4-(dimethylamino)-1H-pyrrolo[2,3-b]pyridine-5-carboxamide] | > 30 µM | < 1 µM | –
CN(C)c1c(C(=O)N[C@H]2CCOc3ccccc32)cnc2c1ccn2-c1cccc(Cl)c1Cl [Compound 13] | > 30 µM | < 1 µM | –
O=C(Nc1cccc2ccccc12)c1cnc2c(ccn2-c2cc(Cl)cc(Cl)c2)c1N1CCOCC1 [Compound 42] | > 30 µM | – | –
COc1c(C(=O)N[C@H]2CCOc3ccccc32)cnc2c1ccn2-c1cc(Cl)cc(Cl)c1 [Compound 47] | > 30 µM | – | –
O=C(N[C@H]1CCOc2ccccc21)c1cnc2c(ccn2-c2cc(Cl)cc(Cl)c2)c1N1CCOCC1 [Compound 33] | > 30 µM | – | –
O=C(NCc1ccccc1)c1cnc2c(ccn2-c2cccc(Cl)c2Cl)c1N1CCOCC1 [Compound 12] | > 30 µM | – | –

Compound | EC50 [3] | EC50 [4] | further results
CN(C)c1c(C(=O)NC2CCc3ccccc32)cnc2c1ccn2-c1cccc(Cl)c1Cl (stereo not drawn) [Compound 2] | > 30 µM | < 1 µM | –
O=C(N[C@H]1CCOc2ccccc21)c1cnc2c(ccn2-c2cc(Cl)cc(Cl)c2)c1O [Compound 51] | > 30 µM | – | EC50 [5]: < 10 µM; EC50 [6]: < 10 µM
CN(C)c1cccc(-n2ccc3c(N(C)C)c(C(=O)N[C@H]4CCOc5ccccc54)cnc32)c1 [Compound 30] | > 30 µM | < 1 µM | minimal effective concentration [1]: ≤ 50 µM
O=C(NC1CCc2ccccc21)c1cnc2c(ccn2-c2cc(Cl)cc(Cl)c2)c1N1CCOCC1 (stereo not drawn) [Compound 3] | > 30 µM | – | –
CN(C)c1c(C(=O)NC2CC(C)(C)Oc3ccccc32)cnc2c1ccn2-c1cc(Cl)cc(Cl)c1 (stereo not drawn) [Compound 38] | 10 to 30 µM | < 10 µM | EC50 [6]: < 10 µM; minimal effective concentration [1]: ≤ 50 µM
O=C(NC1CCOc2ccccc21)c1cnc2c(ccn2-c2cc(Cl)cc(Cl)c2)c1N1CCOCC1 (stereo not drawn) [Compound 7] | > 30 µM | – | –
CN(C)c1c(C(=O)N[C@H]2CCOc3ccccc32)cnc2c1ccn2-c1cc(Cl)cc(Cl)c1 [Compound 32] | > 30 µM | – | –
COc1c(C(=O)N[C@H]2CCCc3ccccc32)cnc2c1ccn2-c1cc(Cl)cc(Cl)c1 [Compound 48] | > 30 µM | – | EC50 [6]: < 10 µM; minimal effective concentration [1]: ≤ 50 µM
O=C(N[C@H]1CCCc2ccccc21)c1cnc2c(ccn2-c2cc(Cl)cc(Cl)c2)c1N1CCOCC1 [Compound 35] | > 30 µM | – | –
CN(C)c1c(C(=O)Nc2cccc3ccccc23)cnc2c1ccn2-c1cccc(Cl)c1Cl [Compound 20] | > 30 µM | – | EC50 [6]: < 10 µM; minimal effective concentration [1]: ≤ 50 µM
O=C(N[C@H]1CCc2ccccc21)c1cnc2c(ccn2-c2cc(Cl)cc(Cl)c2)c1N1CCOCC1 [Compound 37] | > 30 µM | – | EC50 [5]: < 10 µM; EC50 [6]: < 10 µM; minimal effective concentration [1]: ≤ 50 µM; minimal effective concentration [2]: ≤ 50 µM
Cc1cccc(-n2ccc3c(N(C)C)c(C(=O)N[C@H]4CCOc5ccccc54)cnc32)c1C [Compound 29] | > 30 µM | < 1 µM | –
O=C(N[C@H]1CCc2ccccc21)c1cnc2c(ccn2-c2cccc(Cl)c2Cl)c1N1CCOCC1 [Compound 22] | > 30 µM | – | –
CN(C)c1c(C(=O)N[C@@H]2CCc3ccccc32)cnc2c1ccn2-c1cccc(Cl)c1Cl [Compound 15] | > 30 µM | – | EC50 [5]: < 10 µM
CN(C)c1c(C(=O)NC2CCOc3ccccc32)cnc2c1ccn2-c1cc(Cl)cc(Cl)c1 (stereo not drawn) [Compound 5] | > 30 µM | < 1 µM | minimal effective concentration [1]: ≤ 50 µM
COc1c(C(=O)Nc2cccc3ccccc23)cnc2c1ccn2-c1cc(Cl)cc(Cl)c1 [Compound 50] | > 30 µM | – | EC50 [5]: < 10 µM
CC1(C)CC(NC(=O)c2cnc3c(ccn3-c3cc(Cl)cc(Cl)c3)c2N2CCOCC2)c2ccccc2O1 (stereo not drawn) [Compound 39] | > 30 µM | – | EC50 [6]: < 10 µM; minimal effective concentration [1]: ≤ 50 µM; minimal effective concentration [2]: ≤ 50 µM
CN(C)c1c(C(=O)Nc2cccc3ccccc23)cnc2c1ccn2-c1cc(Cl)cc(Cl)c1 [Compound 41] | > 30 µM | – | EC50 [6]: < 10 µM
CCOc1c(C(=O)N[C@H]2CCc3ccccc32)cnc2c1ccn2-c1cc(Cl)cc(Cl)c1 [Compound 44] | > 30 µM | – | –
CCOc1c(C(=O)Nc2cccc3ccccc23)cnc2c1ccn2-c1cc(Cl)cc(Cl)c1 [Compound 46] | > 30 µM | – | –
CN(C)c1c(C(=O)N[C@H]2CCc3ccccc32)cnc2c1ccn2-c1cccc(Cl)c1Cl [Compound 16] | > 30 µM | < 1 µM | –
COc1cccc(-n2ccc3c(N(C)C)c(C(=O)N[C@H]4CCOc5ccccc54)cnc32)c1 [Compound 31] | > 30 µM | < 1 µM | –
O=C(N[C@H]1CCOc2ccccc21)c1cnc2c(ccn2-c2cccc(Cl)c2Cl)c1N1CCOCC1 [Compound 21] | > 30 µM | < 1 µM | –
